Reference: ChEMBL document CHEMBL2407034, “Discovery of AZD8931, an Equipotent, Reversible Inhibitor of Signaling by EGFR, HER2, and HER3 Receptors” (ACS Med Chem Lett, 2013)
≈ marks a conversion by molar mass, not a printed value.

Assays:
[1] = Lipophilicity, log D of the compound at pH 7.4; type: physicochemical; conditions: buffer
KB = experiment: Antiproliferative activity against human KB cells; type: functional, cell-based
[2] = AUC in mouse at 50 mg/kg, po; type: ADME, organism-based; design: dose 50 mg/kg, route oral; conditions: plasma
LoVo = experiment: Antitumor activity against human LoVo cells xenografted in mouse assessed as tumor growth inhibition at 100 mg/kg, po qd; type: functional; conditions: read-out: TGI
[3] = target: T1, Receptor tyrosine-protein kinase erbB-2 (Homo sapiens, UniProt P04626); experiment: Inhibition of human HER2 kinase domain expressed in baculovirus/Sf21 system by ELISA
[4] = target: T1, Receptor tyrosine-protein kinase erbB-2; experiment: Inhibition of full-length HER2 phosphorylation transfected in human MCF-7 cl.24 cells after 4 hrs by laser scanning fluorescence microplate cytometry; type: cell-based
[5] = Fraction unbound in human plasma; type: ADME, cell-free
[6] = Fraction unbound in rat plasma; type: ADME, cell-free
[7] = Clearance in dog at 2 mg/kg, po and 1 mg/kg, iv; type: ADME, organism-based, Canis lupus familiaris; conditions: in vivo
Cytochrome P450 1A2 = target: T2, Cytochrome P450 1A2 (Homo sapiens, UniProt P05177); experiment: Inhibition of CYP1A2 (unknown origin); type: ADME
T2 sequence (P05177 whole entry): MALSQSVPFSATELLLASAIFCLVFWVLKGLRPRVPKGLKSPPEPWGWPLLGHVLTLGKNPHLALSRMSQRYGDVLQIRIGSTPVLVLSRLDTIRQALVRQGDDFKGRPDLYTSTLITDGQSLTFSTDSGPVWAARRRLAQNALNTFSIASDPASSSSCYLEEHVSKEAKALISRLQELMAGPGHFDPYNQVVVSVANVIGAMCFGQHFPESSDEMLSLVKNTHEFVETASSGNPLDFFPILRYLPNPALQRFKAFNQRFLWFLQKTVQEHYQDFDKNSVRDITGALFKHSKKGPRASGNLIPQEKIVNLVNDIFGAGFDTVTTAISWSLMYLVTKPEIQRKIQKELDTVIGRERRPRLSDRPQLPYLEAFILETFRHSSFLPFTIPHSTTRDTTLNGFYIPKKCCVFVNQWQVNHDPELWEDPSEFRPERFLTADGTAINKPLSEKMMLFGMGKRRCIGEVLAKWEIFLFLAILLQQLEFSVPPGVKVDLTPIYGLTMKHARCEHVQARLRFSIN

Cytochrome P450 2C9 = Cytochrome P450 2C9 (Homo sapiens, UniProt P11712); experiment: Inhibition of CYP2C9 (unknown origin); type: ADME
[8] = Aqueous solubility of the compound in phosphate buffer at pH 6.8; type: physicochemical
[9] = Intrinsic clearance in human hepatocytes assessed per million cells; type: ADME, cell-based, Hepatocyte; conditions: read-out: CLH
Cytochrome P450 2C19 = Cytochrome P450 2C19 (Homo sapiens, UniProt P33261); experiment: Inhibition of CYP2C19 (unknown origin); type: ADME
[10] = Volume of distribution at steady state in dog at 2 mg/kg, po and 1 mg/kg, iv; type: ADME, organism-based, Canis lupus familiaris; conditions: in vivo, read-out: Vdss
[11] = Volume of distribution at steady state in AP-Wistar rat at 5 mg/kg, po and 2 mg/kg, iv; type: ADME, organism-based; conditions: in vivo, read-out: Vdss
[12] = Bioavailability in dog at 2 mg/kg, po and 1 mg/kg, iv; type: ADME, organism-based, Canis lupus familiaris; conditions: in vivo
[13] = Clearance in AP-Wistar rat at 5 mg/kg, po and 2 mg/kg, iv; type: ADME, organism-based; conditions: in vivo
[14] = Apparent permeability from apical to basolateral side of human Caco2 cells at 10 uM; type: ADME, cell-based; conditions: Caco-2
Cytochrome P450 2D6 = Cytochrome P450 2D6 (Homo sapiens, UniProt P10635); experiment: Inhibition of CYP2D6 (unknown origin); type: ADME
[15] = Bioavailability in AP-Wistar rat at 5 mg/kg, po and 2 mg/kg, iv; type: ADME, organism-based; conditions: in vivo

T1 sequence (P04626 whole entry, the tested form may be a part): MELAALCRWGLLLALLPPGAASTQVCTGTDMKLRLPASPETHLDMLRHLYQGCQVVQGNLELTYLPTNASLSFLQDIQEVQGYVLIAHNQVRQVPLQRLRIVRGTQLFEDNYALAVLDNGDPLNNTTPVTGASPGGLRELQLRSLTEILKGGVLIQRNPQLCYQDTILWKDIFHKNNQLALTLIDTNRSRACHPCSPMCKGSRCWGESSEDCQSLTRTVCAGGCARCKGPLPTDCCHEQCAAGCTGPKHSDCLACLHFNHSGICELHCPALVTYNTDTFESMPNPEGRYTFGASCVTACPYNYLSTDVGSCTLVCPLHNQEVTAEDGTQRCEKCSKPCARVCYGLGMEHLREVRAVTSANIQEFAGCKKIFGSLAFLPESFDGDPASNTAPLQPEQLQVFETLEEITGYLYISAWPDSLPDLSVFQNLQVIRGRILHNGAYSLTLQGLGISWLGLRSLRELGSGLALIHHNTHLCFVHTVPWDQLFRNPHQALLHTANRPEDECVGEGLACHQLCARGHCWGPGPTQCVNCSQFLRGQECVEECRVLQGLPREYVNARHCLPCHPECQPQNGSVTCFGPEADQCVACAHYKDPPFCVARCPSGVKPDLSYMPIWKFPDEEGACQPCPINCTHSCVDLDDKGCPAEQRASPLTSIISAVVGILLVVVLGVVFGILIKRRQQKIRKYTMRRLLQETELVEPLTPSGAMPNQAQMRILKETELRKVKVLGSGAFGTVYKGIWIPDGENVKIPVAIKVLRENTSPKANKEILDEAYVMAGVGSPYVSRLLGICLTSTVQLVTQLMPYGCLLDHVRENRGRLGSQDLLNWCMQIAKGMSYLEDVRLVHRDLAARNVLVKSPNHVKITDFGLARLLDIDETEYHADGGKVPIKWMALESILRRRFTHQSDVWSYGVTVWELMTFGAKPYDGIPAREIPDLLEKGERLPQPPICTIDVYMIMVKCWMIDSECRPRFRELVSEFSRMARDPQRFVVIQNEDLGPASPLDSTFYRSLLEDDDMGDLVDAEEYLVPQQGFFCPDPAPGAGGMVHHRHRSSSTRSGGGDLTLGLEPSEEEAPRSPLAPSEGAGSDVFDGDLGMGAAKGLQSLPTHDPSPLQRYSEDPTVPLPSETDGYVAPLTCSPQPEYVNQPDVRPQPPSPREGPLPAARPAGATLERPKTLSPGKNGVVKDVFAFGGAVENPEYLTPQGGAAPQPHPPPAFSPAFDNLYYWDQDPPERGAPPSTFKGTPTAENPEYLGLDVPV
Cytochrome P450 2C19, sequence (P33261 whole entry): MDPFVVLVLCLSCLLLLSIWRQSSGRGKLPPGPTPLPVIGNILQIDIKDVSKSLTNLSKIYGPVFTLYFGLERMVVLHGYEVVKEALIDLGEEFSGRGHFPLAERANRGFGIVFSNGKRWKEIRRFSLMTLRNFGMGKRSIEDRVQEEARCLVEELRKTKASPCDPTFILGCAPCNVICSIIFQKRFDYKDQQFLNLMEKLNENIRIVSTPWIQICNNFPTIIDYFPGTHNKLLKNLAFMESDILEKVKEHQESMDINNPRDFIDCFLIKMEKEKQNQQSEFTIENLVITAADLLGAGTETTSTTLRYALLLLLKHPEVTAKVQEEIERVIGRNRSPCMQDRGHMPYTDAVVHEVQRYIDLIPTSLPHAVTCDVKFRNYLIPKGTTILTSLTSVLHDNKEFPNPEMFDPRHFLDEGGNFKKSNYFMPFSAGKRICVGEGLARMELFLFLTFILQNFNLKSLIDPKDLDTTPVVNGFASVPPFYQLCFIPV
Cytochrome P450 2C9, sequence (P11712 whole entry): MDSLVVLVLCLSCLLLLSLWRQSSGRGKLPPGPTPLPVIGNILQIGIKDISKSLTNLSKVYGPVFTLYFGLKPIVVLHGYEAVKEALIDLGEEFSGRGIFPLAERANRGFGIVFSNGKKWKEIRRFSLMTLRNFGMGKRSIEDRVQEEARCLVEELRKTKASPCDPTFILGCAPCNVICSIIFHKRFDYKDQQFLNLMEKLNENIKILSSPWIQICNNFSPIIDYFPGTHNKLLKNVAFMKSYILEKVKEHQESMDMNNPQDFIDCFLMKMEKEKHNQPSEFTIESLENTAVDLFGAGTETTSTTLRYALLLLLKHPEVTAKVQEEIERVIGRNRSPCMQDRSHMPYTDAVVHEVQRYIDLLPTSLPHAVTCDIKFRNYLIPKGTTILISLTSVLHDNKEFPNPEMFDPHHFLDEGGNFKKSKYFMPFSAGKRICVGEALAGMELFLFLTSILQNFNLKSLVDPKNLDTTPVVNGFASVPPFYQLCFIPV
Cytochrome P450 2D6, sequence (P10635 whole entry): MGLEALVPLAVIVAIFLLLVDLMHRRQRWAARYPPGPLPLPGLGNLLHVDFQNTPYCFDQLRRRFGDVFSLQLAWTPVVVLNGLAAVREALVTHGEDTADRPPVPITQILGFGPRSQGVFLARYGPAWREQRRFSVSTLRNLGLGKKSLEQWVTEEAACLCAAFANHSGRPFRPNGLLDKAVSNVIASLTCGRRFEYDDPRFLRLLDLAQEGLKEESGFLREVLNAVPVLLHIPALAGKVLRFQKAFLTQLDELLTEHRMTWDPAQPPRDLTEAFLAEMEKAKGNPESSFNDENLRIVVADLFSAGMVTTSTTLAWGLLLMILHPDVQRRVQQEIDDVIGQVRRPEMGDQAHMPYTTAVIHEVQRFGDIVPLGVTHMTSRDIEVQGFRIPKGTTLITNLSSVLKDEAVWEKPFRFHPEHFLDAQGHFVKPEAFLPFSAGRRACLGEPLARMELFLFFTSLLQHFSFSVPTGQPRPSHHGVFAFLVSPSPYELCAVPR

Compound COc1cc2ncnc(Nc3cccc(Cl)c3F)c2cc1OC1CCN(CC(N)=O)CC1 has a logD [1] of 3.1, an IC50 (KB) of 4 nM and an AUC [2] of 19 µM·h. The inhibition in vivo at 100 mg/kg (LoVo) was 36%.
CCNC(=O)CN1CCC(Oc2cc3c(Nc4cccc(Cl)c4F)ncnc3cc2OC)CC1 gave an IC50 [3] of 33 nM and an IC50 [4] of 120 nM.
For COCCNC(=O)CN1CCC(Oc2cc3c(Nc4cccc(Cl)c4F)ncnc3cc2OC)CC1, the IC50 [3] was 91 nM and the IC50 [4] was 250 nM.
For COc1cc2ncnc(Nc3cccc(Cl)c3F)c2cc1OC1CCN(CC(=O)NC(C)C)CC1, the IC50 [3] was 110 nM and the IC50 [4] was 410 nM.
COc1cc2ncnc(Nc3cccc(Cl)c3F)c2cc1OC1CCN(CC(=O)N(C)C)CC1 showed an IC50 [3] of 220 nM and an IC50 [4] of 670 nM.
Work on CNC(=O)CN1CCC(Oc2cc3c(Nc4ccc(F)c(Cl)c4)ncnc3cc2OC)CC1 yielded a logD [1] of 4, an AUC [2] of 19 µM·h and a fraction unbound [5] of 0.027. It also gave a fraction unbound [6] of 0.029, an IC50 [4] of 264 nM and an inhibition in vivo at 100 mg/kg (LoVo) of 28%.
CNC(=O)CN1CCC(Oc2cc3c(Nc4ccc(F)c(Cl)c4F)ncnc3cc2OC)CC1 gave an IC50 [4] of 89 nM.
CNC(=O)CN1CCC(Oc2cc3c(Nc4cccc(Cl)c4)ncnc3cc2OC)CC1 showed an IC50 [4] of 360 nM.
Compound CNC(=O)CN1CCC(Oc2cc3c(Nc4cc(Cl)ccc4F)ncnc3cc2OC)CC1 has an IC50 [4] of 860 nM.
For CNC(=O)CCN1CCC(Oc2cc3c(Nc4cccc(Cl)c4F)ncnc3cc2OC)CC1, the IC50 [4] was 550 nM.
With CNC(=O)CN1CC(Oc2cc3c(Nc4cccc(Cl)c4F)ncnc3cc2OC)C1 the IC50 [4] was 1100 nM.
With CNC(=O)CN(C)CCOc1cc2c(Nc3cccc(Cl)c3F)ncnc2cc1OC the IC50 [4] was 1500 nM.
Compound CNC(=O)CN1CCCC(Oc2cc3c(Nc4cccc(Cl)c4F)ncnc3cc2OC)C1 (racemic) has an IC50 [4] of 230 nM.
CNC(=O)CN1CCC(Oc2cc3c(Nc4cccc(Cl)c4F)ncnc3cc2OC)C1 (racemic) gave an IC50 [4] of 250 nM.
For CNC(=O)CN1CCC(Oc2cc3c(Nc4cccc(Cl)c4F)ncnc3cc2OC)CC1 [SAPITINIB], the IC50 [3] was 14 nM, the clearance [7] was 1.1 mL/min/kg and the logD [1] was 3.2. For the same compound, the IC50 (Cytochrome P450 1A2) was > 10000 nM, the IC50 (Cytochrome P450 2C9) was > 10000 nM and the AUC [2] was 66 µM·h. The solubility [8] was 17 µM (≈ 8.06 µg/mL), the hepatocyte CLint [9] was < 4.5 µL/min/1e6 cells and the IC50 (Cytochrome P450 2C19) was > 10000 nM. The Vd [10] was 0.2 L/kg, the Vd [11] was 0.8 L/kg and the fraction unbound [5] was 0.067. It also gave a fraction unbound [6] of 0.072, an IC50 [4] of 60 nM and a bioavailability [12] of 89%. For the same compound, the clearance [13] was 13 mL/min/kg, the Papp A→B at 10 µM [14] was 15.9 ×10⁻⁶ cm/s and the IC50 (Cytochrome P450 2D6) was > 10000 nM. It also gave a bioavailability [15] of 38% and an inhibition in vivo at 100 mg/kg (LoVo) of 76%.
